Data on 16 molecules can be found in EP2768830B1, “APOPTOSIS-INDUCING AGENTS FOR THE TREATMENT OF CANCER AND IMMUNE AND AUTOIMMUNE DISEASES” (AbbVie Inc., priority 2011, dated 2013).

Experiment [1] has as its system mouse FL5.12 cells transfected with Bcl-XL. Nature of the experiment: FL5.12 cellular assay (cell viability, CellTiter-Glo).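 Further: each EC50 determination derived from duplicate measurements.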 The following applies: Mus musculus; FL5.12 cells transfected with Bcl-XL, IL-3-depleted, 3% FBS assay media, 24 hours, CellTiter-Glo; read-out: FL5.12 Bcl-xL, - IL3, EC 50. The format is cell-based. (ATP-based viability assays read luminescence as a measure of living cells.)

In a further experiment the target is GST-Bcl-xL (Homo sapiens, UniProt Q07817). The following applies: read-out: TR-FRET binding Bcl-xL Ki. Background: In TR-FRET formats the signal depends on donor and acceptor labels being close together.
Sequence of GST-Bcl-xL (Q07817 whole entry): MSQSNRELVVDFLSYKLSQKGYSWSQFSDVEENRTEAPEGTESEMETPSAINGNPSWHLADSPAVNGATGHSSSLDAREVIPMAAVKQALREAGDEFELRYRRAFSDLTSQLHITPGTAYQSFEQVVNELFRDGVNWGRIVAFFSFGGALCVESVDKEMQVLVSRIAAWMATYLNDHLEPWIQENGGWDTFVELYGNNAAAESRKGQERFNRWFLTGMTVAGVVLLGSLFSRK

Take `O=C(Nc1nc2ccccc2s1)c1cccc2c1CN(c1ccc(-c3ccn(S(=O)(=O)c4ccccc4)c3)c(C(=O)O)n1)CC2` [Example 128, 6-[8-(1,3-benzothiazol-2-ylcarbamoyl)-3,4-dihydroisoquinolin-2(1H)-yl]-3-[1-(phenylsulfonyl)-1H-pyrrol-3-yl]pyridine-2-carboxylic acid]: the EC50 in experiment [1] was over 1000 nM. The Ki (as a rule, the dissociation constant of the complex between target and ligand, obtained from inhibition or displacement) at GST-Bcl-xL came out at 7 nM.
In the same order, the values of `Cc1c(-c2ccc(N3CCc4cccc(C(=O)Nc5nc6ccccc6s5)c4C3)nc2C(=O)O)ccnc1N1CCCCC1` [Example 183, 6-[8-(1,3-benzothiazol-2-ylcarbamoyl)-3,4-dihydroisoquinolin-2(1H)-yl]-3'-methyl-2'-(piperidin-1-yl)-3,4'-bipyridine-2-carboxylic acid] are 507 nM and 0.7 nM.
In the same order, the values of `Cc1c(-c2ccc(N3CCc4cccc(C(=O)Nc5nc6ccccc6s5)c4C3)nc2C(=O)O)cnn1CC1(OCC2COCCO2)CCCCCC1` (centres unmarked) [Example 173, 6-[8-(1,3-benzothiazol-2-ylcarbamoyl)-3,4-dihydroisoquinolin-2(1H)-yl]-3-(1-{[1-(1,4-dioxan-2-ylmethoxy)cycloheptyl]methyl}-5-methyl-1H-pyrazol-4-yl)pyridine-2-carboxylic acid] are 0.1 nM and under 0.1 nM.
In the same order, the values of `O=C(Nc1nc2ccccc2s1)c1cccc2c1CN(c1ccc(-c3ccc4c(cnn4Cc4ccccc4)c3)c(C(=O)O)n1)CC2` [Example 153, 6-[8-(1,3-benzothiazol-2-ylcarbamoyl)-3,4-dihydroisoquinolin-2(1H)-yl]-3-(1-benzyl-1H-indazol-5-yl)pyridine-2-carboxylic acid] are 587 nM and 0.3 nM.
For the molecule `O=C(Nc1nc2ccccc2s1)c1cccc2c1CN(c1ccc(-c3cnn(CC4(c5ccccc5)CCCCC4)c3)c(C(=O)O)n1)CC2` [Example 67, 6-[8-(1,3-benzothiazol-2-ylcarbamoyl)-3,4-dihydroisoquinolin-2(1H)-yl]-3-{1-[(1-phenylcyclohexyl)methyl]-1H-pyrazol-4-yl}pyridine-2-carboxylic acid], in experiment [1], the EC50 was found to be 106 nM. Besides, the Ki at GST-Bcl-xL is 7 nM.
As to `CC(C)(C)OC(=O)N1CCC(Cn2cc(-c3ccc(N4CCc5cccc(C(=O)Nc6nc7ccccc7s6)c5C4)nc3C(=O)O)cn2)CC1` [Example 78, 6-[8-(1,3-benzothiazol-2-ylcarbamoyl)-3,4-dihydroisoquinolin-2(1H)-yl]-3-(1-{[1-(tert-butoxycarbonyl)piperidin-4-yl]methyl}-1H-pyrazol-4-yl)pyridine-2-carboxylic acid], the EC50 in experiment [1] is over 1000 nM. Moreover, the Ki on GST-Bcl-xL worked out at 379 nM.
In the case of `O=C(Nc1nc2ccccc2s1)c1cccc2c1CN(c1ccc(-c3cnn(C(CC4CCCCC4)c4ccccc4)c3)c(C(=O)O)n1)CC2` (centres unmarked) [Example 96, 6-[8-(1,3-benzothiazol-2-ylcarbamoyl)-3,4-dihydroisoquinolin-2(1H)-yl]-3-[1-(2-cyclohexyl-1-phenylethyl)-1H-pyrazol-4-yl]pyridine-2-carboxylic acid], the EC50 in experiment [1] came out at 620 nM. At GST-Bcl-xL, the Ki worked out at 12 nM.
In the same order, the values of `O=C(Nc1nc2ccccc2s1)c1cccc2c1CN(c1ccc(-c3cnn(Cc4ccccc4N4CCOCC4)c3)c(C(=O)O)n1)CC2` [Example 76, 6-[8-(1,3-benzothiazol-2-ylcarbamoyl)-3,4-dihydroisoquinolin-2(1H)-yl]-3-{1-[2-(morpholin-4-yl)benzyl]-1H-pyrazol-4-yl}pyridine-2-carboxylic acid] are over 1000 nM and 29 nM.
In the same order, the values of `Cc1c(-c2ccc(N3CCc4cccc(C(=O)Nc5nc6ccccc6s5)c4C3)nc2C(=O)O)ccnc1Oc1ccccc1` [Example 142, 6-[8-(1,3-benzothiazol-2-ylcarbamoyl)-3,4-dihydroisoquinolin-2(1H)-yl]-3'-methyl-2'-phenoxy-3,4'-bipyridine-2-carboxylic acid] are over 1000 nM and 0.5 nM.
In the same order, the values of `O=C(Nc1nc2ccccc2s1)c1cccc2c1CN(c1ccc(-c3cnn(C4CCOc5ccccc54)c3)c(C(=O)O)n1)CC2` (centres unmarked) [Example 39, 6-[8-(1,3-benzothiazol-2-ylcarbamoyl)-3,4-dihydroisoquinolin-2(1H)-yl]-3-[1-(3,4-dihydro-2H-chromen-4-yl)-1H-pyrazol-4-yl]pyridine-2-carboxylic acid] are over 1000 nM and 56 nM.
Turning to `O=C(Nc1nc2ccccc2s1)c1cccc2c1CN(c1ccc(-c3cccc(OC4CCCCC4)c3Cl)c(C(=O)O)n1)CC2` [Example 117, 6-[8-(1,3-benzothiazol-2-ylcarbamoyl)-3,4-dihydroisoquinolin-2(1H)-yl]-3-[2-chloro-3-(cyclohexyloxy)phenyl]pyridine-2-carboxylic acid], the EC50 in experiment [1] amounted to 131 nM. The Ki at GST-Bcl-xL was under 0.1 nM.
In the same order, the values of `COC1(Cn2ncc(-c3ccc(N4CCc5cccc(C(=O)Nc6nc7ccccc7s6)c5C4)nc3C(=O)NS(C)(=O)=O)c2C)CCCC(C)(C)C1` (centres unmarked) [Example 162, N-(1,3-benzothiazol-2-yl)-2-(5-{1-[(1-methoxy-3,3-dimethylcyclohexyl)methyl]-5-methyl-1H-pyrazol-4-yl}-6-[(methylsulfonyl)carbamoyl]pyridin-2-yl)-1,2,3,4-tetrahydroisoquinoline-8-carboxamide] are 5 nM and under 0.1 nM.
In the same order, the values of `Cc1c(-c2ccc(N3CCc4cccc(C(=O)Nc5nc6ccccc6s5)c4C3)nc2C(=O)O)cnn1CC1CCC(F)(F)CC1` [Example 73, 6-[8-(1,3-benzothiazol-2-ylcarbamoyl)-3,4-dihydroisoquinolin-2(1H)-yl]-3-{1-[(4,4-difluorocyclohexyl)methyl]-5-methyl-1H-pyrazol-4-yl}pyridine-2-carboxylic acid] are 8 nM and 0.9 nM.
In the same order, the values of `O=C(Nc1nc2ccccc2s1)c1cccc2c1CN(c1ccc(-c3cnn(Cc4cc(F)ccc4F)c3)c(C(=O)O)n1)CC2` [Example 54, 6-[8-(1,3-benzothiazol-2-ylcarbamoyl)-3,4-dihydroisoquinolin-2(1H)-yl]-3-[1-(2,5-difluorobenzyl)-1H-pyrazol-4-yl]pyridine-2-carboxylic acid] are 501 nM and 15 nM.
Turning to `Cc1c(OC2CCCCC2)cccc1-c1ccc(N2CCc3cccc(C(=O)Nc4nc5ccccc5s4)c3C2)nc1C(=O)O` [Example 114, 6-[8-(1,3-benzothiazol-2-ylcarbamoyl)-3,4-dihydroisoquinolin-2(1H)-yl]-3-[3-(cyclohexyloxy)-2-methylphenyl]pyridine-2-carboxylic acid], the EC50 in experiment [1] came to 220 nM. Besides, at GST-Bcl-xL, the Ki is 0.2 nM.
In the same order, the values of `O=C(Nc1nc2ccccc2s1)c1cccc2c1CN(c1ccc(-c3cnn(Cc4ccccc4S(=O)(=O)N4CCOCC4)c3)c(C(=O)O)n1)CC2` [Example 72, 6-[8-(1,3-benzothiazol-2-ylcarbamoyl)-3,4-dihydroisoquinolin-2(1H)-yl]-3-{1-[2-(morpholin-4-ylsulfonyl)benzyl]-1H-pyrazol-4-yl}pyridine-2-carboxylic acid] are over 1000 nM and 28 nM.
